Test results published in US20040171823A1, “Polynucleotides and polypeptides associated with the NF-kappaB pathway” (priority 2003, published 2004).

Test system: NF-κB activation pathway
Assay: Real-time PCR (TaqMan/SYBR Green) of target gene mRNA in LPS-stimulated THP-1 cells with NF-κB pathway inhibitors
Assay type: cell-based, human
Conditions: BMS-345541 10 μM, dexamethasone 100 nM; for MGC20791 expression (mRNA): all time points examined, FIG. 5D; for BCL-6 expression (mRNA): FIG. 5C
Description: Poly (A)^+ mRNA was isolated from THP-1 cells that were either unstimulated, or stimulated with 100 ng/ml LPS for two hours in the presence and absence of BMS-205820 (2 uM) using the Fast Track isolation kit (Invitrogen, Carlsbad, Calif.) according to manufacturer's instructions. RNA quality and quantity were evaluated using UV spectrometry and capillary electrophoresis with the RNA 6000 Assay 10 (Agilent). First-strand cDNA was synthesized using the SuperScript™ First-Strand Synthesis System for RT-PCR (Invitrogen) according to manufacturer's instructions.
PCR reactions were performed in a total volume of 40 ul containing master mix (SYBR Green I dye, 50 mM Tris-Cl pH 8.3, 75 mM KCl, DMSO, Rox reference dye, 5 mM MgCl2, 2 mM dNTP, 1 unit Platinum Taq High Fidelity enzyme), 0.5 uM 15 each of forward and reverse gene-specific primers, and cDNA (8 ul of a 1:36 dilution of the first strand reaction mix). For tissue expression analyses, PCR reactions included 2 ul of cDNA derived from the Human Multiple Tissue cDNA panel I and Human Immune System MTC Panel (Clontech, Palo Alto, Calif.). The amplification program consisted of a 10 minute incubation at 95° C., followed by 40 cycles of incubations at 95° C. for 15 seconds, 60° C. for 1 minute. The amplification was followed by melting curve analysis at 60° C. to determine the specificity of the amplification reaction. The data were analyzed using the TaqMan 5700 software with the threshold value set to 0.5. The message levels of GAPDH were used to normalize the amounts of cDNA for each reaction.
PolyA+ mRNA was isolated from THP1 cells that were either unstimulated, stimulated with LPS for 2 hours, or stimulated with LPS for 2 hours in the presence of the peptide BMS-205820 (2 μM). In some experiments, THP-1 cells were stimulated with LPS in the presence of the glucocorticoid dexamethasone (100 nM), and the IKK-2 inhibitor, BMS-345541 (10 μM). RNA quality and quantity were evaluated using UV spectrometry and capillary electrophoresis with the RNA 6000 Assay by Agilent. Five-hundred nanograms of polyA RNA was used for first-strand cDNA synthesis using the SuperScript™ First-Strand Synthesis System for RT-PCR (Life Technologies) following the manufacturer's instructions with 250 ng of random hexamers.
PCR Reactions were performed in a total volume of 40 μl. The master mix contained SYBR Green I Dye, 50 mM Tris-HCl pH8.3, 75 mM KCl, DMSO, Rox reference dye, 5 mM MgCl2, 2 mM dNTP, Platinum Taq High Fidelity (1U/reaction), and 0.5 μM of each primer. The cDNA was diluted 1:36 from the synthesis reaction and eight microliters was used in each PCR reaction. For tissue distribution analyses, two microliters of cDNA from the Human Multiple Tissue and Human Immune System MTC cDNA panels were used as templates. The amplification program consisted of a 10 minute incubation at 95° C. followed by forty cycles of incubations at 95° C. for 15 seconds and 60° C. for 1 minute. […] A negative control without cDNA template was run to assess the overall specificity.
A relative value for the initial target concentration in each reaction was determined using the TaqMan 5700 software. The threshold value was set to 0.5 to obtain cycle threshold values that were used to assign relative message levels for each target. The message levels of GAPDH were determined for each cDNA sample and were used to normalize all other genes tested from the same cDNA sample.

[1] = THP-1 cells stimulated with LPS

| Structure (SMILES) | MGC20791 expression (mRNA) [1] | Cytokine-Inducible Kinase (CNK) expression (mRNA) (THP-1 cells stimulated with LPS, all time points, FIG. 5A) | BCL-2 Like 11 expression (mRNA) (THP-1 cells stimulated with LPS, each time point, FIG. 5B) | BCL-6 expression (mRNA) [1] | Stat1 expression (mRNA) (THP-1 cells, 8 hours post LPS stimulation, FIG. 5E) |
| --- | --- | --- | --- | --- | --- |
| Cc1ccc2nc(NCCN)c3ncc(C)n3c2c1 [BMS-345541] | significantly inhibited | potently inhibited | significantly inhibited expression at each time point below that detected in resting cells | significantly inhibited | significantly inhibited |
| C[C@@H]1C[C@H]2[C@@H]3CCC4=CC(=O)C=C[C@]4(C)[C@@]3(F)[C@@H](O)C[C@]2(C)[C@@]1(O)C(=O)CO [dexamethasone] | failed to inhibit |  |  | failed to inhibit |  |
